According to BindingDB's records for PubMed 12533678 (Japanese Foundation For Cancer Research, 2003):

Experiments:
[1] = TP_TRANSPORTER: drug resistance(SN-38) in BCRP-expressing K562 cells
[2] = TP_TRANSPORTER: drug resistance(Mitoxantrone) in BCRP-expressing K562 cells

IC50 [1] [nM] | SMILES | IC50 [2] [nM]
> 500 | CC/C(=C(/CC)c1ccc(O)cc1)c1ccc(O)cc1 | 500
> 2000 | CC/C(=C(/c1ccc(OCCN(C)C)cc1)c1ccc(OCc2ccc([N+](=O)[O-])cc2)cc1)c1ccccc1 | 1500
> 2000 | CC/C(=C(/c1ccc(OCCN(C)C)cc1)c1ccc(OCc2ccccc2)cc1)c1ccccc1 | > 2000
> 3000 | CCC(=O)Oc1ccc(/C(CC)=C(\CC)c2ccc(OC(=O)CC)cc2)cc1 [propanoic acid [4-[(E)-4-[4-(1-oxopropoxy)phenyl]hex-3-en-3-yl]phenyl] ester] | > 3000
